Patent US10125100B2, “Kinase inhibitors” (Respivert Limited, priority 2014, dated 2018)
Read-outs that look alike come from different tables or passages of the source.

Assays:
p38 MAPKα (MAPK14) = p38 MAPKα (MAPK14) (Homo sapiens (Human), UniProt Q16539); experiment: p38 MAPKα enzyme inhibition (Method 2), Z-LYTE FRET; type: biochemical
In short: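 Enzyme (200 ng/mL solution) was preincubated 2 h at RT with compound solutions of 1, 0.1, 0.01 or 0.001 μg/mL, and inhibition was read indirectly via MAPKAP-K2 activation/phosphorylation. After a 1 h RT reaction and 1 h protease development, phosphorylation was derived from the coumarin/fluorescein emission ratio.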

Jurkat cells = experiment: (r) Cell cytotoxicity assay; type: cell-based, human; conditions: 24 hours
In short: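 Jurkat cells (1×10^5/well, RPMI + 10% FBS) exposed to compound at 20, 5 or 1 μg/mL final (1.0% DMSO control) for 24 h at 37° C., 5% CO2. Then stained with 7.5 μg/mL propidium iodide for 15 min. % viability = PI-negative cells by flow cytometry, normalized to DMSO.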

non-mutant kinases = experiment: KinomeScan selectivity scores; type: binding; conditions: for number of individual kinase hits S(1): % Ctrl <1; for number of individual kinase hits S(10): % Ctrl <10; for number of individual kinase hits S(35): % Ctrl <35; for KinomeScan Selectivity Score S(1): non-mutant kinases with % Ctrl <1 / kinases tested; for KinomeScan Selectivity Score S(10): non-mutant kinases with % Ctrl <10 / kinases tested; for KinomeScan Selectivity Score S(35): non-mutant kinases with % Ctrl <35 / kinases tested
Source text: (§1) These assays may be conducted by DiscoverX (formerly Ambit; San Diego, Calif.).

c-Src = c-Src (Homo sapiens (Human), UniProt P12931); experiment: c-Src enzyme inhibition, Z-LYTE FRET; type: biochemical
Chain of c-Src (P12931 whole entry, looked up): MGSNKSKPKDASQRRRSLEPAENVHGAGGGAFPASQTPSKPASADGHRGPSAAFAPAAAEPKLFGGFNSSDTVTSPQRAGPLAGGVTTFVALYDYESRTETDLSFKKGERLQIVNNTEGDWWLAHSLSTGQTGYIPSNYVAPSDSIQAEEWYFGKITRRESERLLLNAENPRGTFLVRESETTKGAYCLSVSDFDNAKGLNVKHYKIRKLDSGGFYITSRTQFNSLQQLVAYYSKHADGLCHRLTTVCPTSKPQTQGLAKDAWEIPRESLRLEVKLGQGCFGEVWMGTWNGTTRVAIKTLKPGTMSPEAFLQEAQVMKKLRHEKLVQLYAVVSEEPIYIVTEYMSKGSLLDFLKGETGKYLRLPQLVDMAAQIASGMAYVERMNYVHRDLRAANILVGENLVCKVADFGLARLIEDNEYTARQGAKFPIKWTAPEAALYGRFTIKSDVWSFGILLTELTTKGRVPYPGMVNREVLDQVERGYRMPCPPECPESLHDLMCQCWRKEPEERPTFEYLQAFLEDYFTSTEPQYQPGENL
In short: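 Human Syk and c-Src (enzyme at 2000 or 3000 ng/mL respectively, pre-dilution) preincubated 2 hr at RT with compound at 1, 0.1, 0.01 or 0.001 μg/mL; FRET peptide added with ATP (60 μM Syk, 800 μM c-Src; solution concentrations), 1 hr. Protease development 1 hr; phosphorylation from coumarin/fluorescein emission ratio.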

Syk = Syk (Homo sapiens (Human), UniProt P43405); experiment: Syk enzyme inhibition, Z-LYTE FRET; type: biochemical
In short: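 Syk or c-Src enzyme (3000 or 2000 ng/mL solutions) was preincubated 2 h at RT with compound solutions at 1, 0.1, 0.01 or 0.001 µg/mL. Z-LYTE FRET peptide (8 µM solution) and ATP (800 µM solution for c-Src, 60 µM for Syk) were then added for 1 h, followed by protease development for 1 h. Phosphorylation was read as the coumarin/fluorescein emission ratio.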

[1] = Pharmacokinetics and total colon distribution after oral administration; type: in vivo; conditions: male, C57BL/6, mouse, mice, Ex. 36 measured after oral 5 mg/kg of Ex. 47 (Na salt)
Experimental: Studies were conducted by Sai Life Sciences (Hinjewadi, Pune, India) to investigate the systemic pharmacokinetics and total colon tissue distribution of compounds of the invention. In particular, pharmacokinetic studies were carried out in male C57BL/6 mice following a single oral administration of the compound.

B-Raf = B-Raf (Homo sapiens (Human), UniProt P15056); experiment: KINOMEscan binding of kinase to standard ligand; conditions: KINOMEscan technology
Chain of B-Raf (P15056 whole entry): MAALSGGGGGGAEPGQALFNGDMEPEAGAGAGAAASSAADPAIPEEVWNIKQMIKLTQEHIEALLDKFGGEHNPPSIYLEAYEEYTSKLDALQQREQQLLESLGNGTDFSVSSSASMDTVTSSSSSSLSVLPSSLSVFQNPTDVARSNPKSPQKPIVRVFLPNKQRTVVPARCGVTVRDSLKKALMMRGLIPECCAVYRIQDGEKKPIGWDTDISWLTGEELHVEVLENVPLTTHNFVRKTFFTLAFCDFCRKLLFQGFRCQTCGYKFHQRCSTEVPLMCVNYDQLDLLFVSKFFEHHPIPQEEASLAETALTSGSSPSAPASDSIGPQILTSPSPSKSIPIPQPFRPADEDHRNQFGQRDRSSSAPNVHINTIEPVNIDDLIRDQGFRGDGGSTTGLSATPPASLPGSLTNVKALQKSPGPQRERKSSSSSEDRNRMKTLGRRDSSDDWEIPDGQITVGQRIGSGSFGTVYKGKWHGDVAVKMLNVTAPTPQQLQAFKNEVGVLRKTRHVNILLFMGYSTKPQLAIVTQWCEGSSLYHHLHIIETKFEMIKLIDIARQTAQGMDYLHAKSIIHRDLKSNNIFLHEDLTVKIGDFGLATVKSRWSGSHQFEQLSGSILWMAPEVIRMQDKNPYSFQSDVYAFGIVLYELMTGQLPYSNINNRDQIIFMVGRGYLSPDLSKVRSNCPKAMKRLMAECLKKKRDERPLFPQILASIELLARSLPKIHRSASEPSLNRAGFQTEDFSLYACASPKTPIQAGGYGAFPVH
Source text: as §1

B-Raf (V600E) = B-Raf (V600E) (Homo sapiens (Human), UniProt P15056, V600E); experiment: KINOMEscan binding of kinase to standard ligand; conditions: KINOMEscan technology
Chain of B-Raf (V600E) (P15056 whole entry V600E): as the sequence (P15056 whole entry) above, with V600E counted along it
Source text: as §1

[2] = total colon, read-out: total colon level
[3] = whole blood, read-out: Mean blood concentration

Chain of p38 MAPKα (MAPK14) (Q16539 whole entry): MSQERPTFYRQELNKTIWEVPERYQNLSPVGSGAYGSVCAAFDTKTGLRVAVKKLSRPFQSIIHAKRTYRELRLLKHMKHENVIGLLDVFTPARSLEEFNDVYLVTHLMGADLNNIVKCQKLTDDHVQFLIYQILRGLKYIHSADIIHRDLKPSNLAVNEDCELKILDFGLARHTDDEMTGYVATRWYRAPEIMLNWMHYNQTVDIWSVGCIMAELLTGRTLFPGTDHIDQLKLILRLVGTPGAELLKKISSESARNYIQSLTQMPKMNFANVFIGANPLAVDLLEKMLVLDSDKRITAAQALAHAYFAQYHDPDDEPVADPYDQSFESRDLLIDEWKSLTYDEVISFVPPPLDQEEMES

For `COc1cc(Nc2cc(Oc3ccc(NC(=O)Nc4cc(C(C)(C)C)cc(NS(C)(=O)=O)c4OC)c4ccccc34)ccn2)cc(OC)c1C(=O)NCCOCCOCCO` [Example 36, 4-((4-((4-(3-(5-(tert-butyl)-2-methoxy-3-(methylsulfonamido)phenyl)ureido)naphthalen-1-yl)oxy)pyridin-2-yl)amino)-N-(2-(2-(2-hydroxyethoxy)ethoxy)ethyl)-2,6-dimethoxybenzamide], the IC50 (p38 MAPKα (MAPK14)) was 19 nM, the “% Viability at 1 μg/mL” value (Jurkat cells; 1 μg/mL) was 93.3% and the “% Viability at 5 μg/mL” value (Jurkat cells; 5 μg/mL) was 89.3%. The “% Viability at 20 μg/mL” value (Jurkat cells; 20 μg/mL) was 84.9%, the “number of individual kinase hits S(1)” value (non-mutant kinases; 50 nM) was 1 and the “number of individual kinase hits S(10)” value (non-mutant kinases; 50 nM) was 20. For the same compound, the “number of individual kinase hits S(35)” value (non-mutant kinases; 50 nM) was 60, the “KinomeScan Selectivity Score S(1)” value (non-mutant kinases; 50 nM) was 0.002 and the “KinomeScan Selectivity Score S(10)” value (non-mutant kinases; 50 nM) was 0.050. For the same compound, the “KinomeScan Selectivity Score S(35)” value (non-mutant kinases; 50 nM) was 0.149, the “number of individual kinase hits S(1)” value (non-mutant kinases; 500 nM) was 32 and the “number of individual kinase hits S(10)” value (non-mutant kinases; 500 nM) was 83. The “number of individual kinase hits S(35)” value (non-mutant kinases; 500 nM) was 120, the “KinomeScan Selectivity Score S(1)” value (non-mutant kinases; 500 nM) was 0.079 and the “KinomeScan Selectivity Score S(10)” value (non-mutant kinases; 500 nM) was 0.206. The “KinomeScan Selectivity Score S(35)” value (non-mutant kinases; 500 nM) was 0.298, the IC50 (c-Src) was 10 nM and the IC50 (Syk) was 190 nM. It also gave a concentration at 0.5 h [1, 2] of 37.8 ng/g, a concentration at 1 h [1, 2] of 95.1 ng/g and a concentration at 2 h [1, 2] of 643 ng/g. For the same compound, the concentration at 4 h [1, 2] was 798 ng/g, the concentration at 6 h [1, 2] was 380 ng/g and the concentration at 8 h [1, 2] was 1070 ng/g. The concentration at 12 h [1, 2] was 139 ng/g, the concentration at 24 h [1, 2] was 0 ng/g and the concentration at 0.5 h [1, 3] was 0 ng/mL. The concentration at 1 h [1, 3] was 0 ng/mL, the concentration at 2 h [1, 3] was 0 ng/mL and the concentration at 4 h [1, 3] was 0 ng/mL. The concentration at 6 h [1, 3] was 0 ng/mL, the concentration at 8 h [1, 3] was 0 ng/mL and the concentration at 12 h [1, 3] was 0 ng/mL. The concentration at 24 h [1, 3] was 0 ng/mL, the “effect on the binding of B-Raf to its standard ligand” value (B-Raf) was “did not have any significant effect” and the “effect on the binding of B-Raf (V600E) to its standard ligand” value (B-Raf (V600E)) was “did not have any significant effect”.
